# Experimental data published in US6875758B2, “Method of treating hyperlipidemic and hyperglycemic conditions in mammals using pregnadienols and pregnadienones” (Council of Scientific & Industrial Research, priority 1999, dated 2005).
# What was measured:
# [1] = test system: Triton treated rats; assay: Cholesterol lowering in Triton treated rats; format: in vivo, Charles Foster rats
# Excerpt: The primary hypolipidemic effect of these compounds was established in triton induced hyperlipidemia in Charles Foster rats. […] The cholesterol lowering effect of some representative compounds of pregrenadienols and pregrenadienones as compared to clofibrate and gugulsterone in triton treated Charles Foster rats is described in Table-2.
# [2] = test system: normal rats; assay: Hypolipidemic activity in normal rats; format: in vivo; details: 50 mg/kg
# Experimental: In normal rats, 3β-hydroxypregna-5,16-dien-20one (2), at 50 mg/kg produced a significant lowering of serum cholesterol and triglycerides as describe in Table-3 below.
# [3] = test system: Human serum LDL; assay: Cu2+ induced oxidation of low density lipoprotein (TBA reactive lipid peroxides); format: biochemical; details: for MDA (Exp.): 16 hr at 37° C., pH 7.4; for generation of LDL lipid peroxide (in words): tested concentrations
# Experimental: Human serum LDL was oxidized with Cu^′2 in different concentrations of test compound in 0.05 mole PBS, pH 7.4 for 16 hr at 37° C. Thiobarbituric acid reactive lipid peroxides are measured by standard procedure. […] Cu^′2 induced oxidation in LDL lipids are mainly due to the free OH radical during incubation.
# [4] = test system: isoproterneol induced myocardial necrosis in rat; assay: Isoproterneol induced myocardial necrosis in rats; format: in vivo; details: isoproterneol 85 mg/kg + drug 25 mg/kg p.o.
# Excerpt: The underlying cause of myocardial infarction is believed to be the progressive deposition of lipids and fibrotic material into the arterial wall. These pregnadienols and pregnadienous also provided cardiac protection as assessed in isoproterneol induced myocardial necrosis in rat model, which produces myocardial infarction due to an increased blood pressure and heart rate.
# [5] = Hydroxy (OH) radical formation in nonenzymatic system (Fe2+, ascorbate, H2O2, deoxyribose); format: biochemical
# [6] = test system: cholesterol fed hyperlipidemic rats; assay: Lipid peroxidation in cholesterol fed hyperlipidemic rats; format: in vivo
# [7] = test system: streptozotocin induced diabetic rats; assay: Hypoglycemic activity in streptozotocin induced hyperglycemic rats; format: in vivo; details: 100 mg/kg p.o.
# Experimental: Hyperglycemia in rats was produced by streptozotocin treatment. The animals showing blood glucose levels between 250-350 mg/dl were selected. Blood samples were collected after treatment at intervals and blood glucose levels were estimated immediately.
# [8] = test system: glucose loaded rats; assay: Hypoglycemic activity in glucose loaded rats; format: in vivo, albino rats (Charles Foster strain); details: for Blood Glucose Level: 100 mg/kg p.o. + glucose 2.0 g/kg; for % inhibition compared to control (blood glucose): 100 mg/kg
# Experimental: The experiments were carried out with albino rats (Charles Foster strain) of either sex weighing 150-160 g. They were fed on laboratory diet prepared by M/s Lipton India Ltd. and maintained under 12 hr. light/dark cycle at 25±2° C.
# The animals were divided into eight groups, each of six rats; group I was given 1% gum acacia (0.1 ml/100 g body weight) intragastrically (p.o.) and the group II were given 3β-hydroxypregna-5,16-dien-20-one (2) in 1% gum acacia. Animals of group III were given the standard antidiabetic drug, tolbutamide in the similar fashion. 2.0 g/kg glucose was given p.o. to all the rats along with the vehicle/Compound/Standard antidiabetic drug. Blood samples were taken from retroorbital plexus at periodic intervals. Glucose levels in the blood samples were measured by glucose oxidase method [Bergmeyer and Benut, 1963 cited in “Methods of Enzymatic Analysis” ed. H. Bergmeyer, Verlag Chemie, GmBH, Weinheim, Beroster, pp123, Academic press, New York].
# [9] = Rattus norvegicus, ip, 50 mg/kg i.p., read-out: % Change S. Chol.
smiles,measurement,setting,value
"CC(=O)O[C@H]1CC[C@@]2(C)C(=CC[C@@H]3[C@@H]2CC[C@]2(C)C(C(C)=O)=CC[C@@H]32)C1 [Compound 1, 3β-Acetoxypregna-5,16-dien-20-one]",change in vivo at 50 mg/kg,[1]; [9],-43%
"CC(=O)C1=CCC2C3CCC4=CC(=O)CC[C@]4(C)C3CC[C@]12C (stereo partly drawn) [Compound 3, 4,16-Dienpregna-3,20-dione]",change in vivo at 50 mg/kg,[1]; [9],-13%
"CC(=O)O[C@H]1CC[C@@]2(C)C(=CC[C@H]3[C@@H]4CC[C@H](C(C)=O)[C@@]4(C)CC[C@@H]32)C1 [Compound 4, 3β-Aceoxypregna-5-en-20-one]",% Change S. Chol.,[1]; 100 mg/kg i.p.,−12%
"CC(=O)[C@H]1CC[C@H]2[C@@H]3CC=C4C[C@@H](O)CC[C@]4(C)[C@H]3CC[C@]12C [Compound 5, 3β-Hydroxypregna-5-en-20-one]",change in vivo at 100 mg/kg,"[1]; Rattus norvegicus, ip, 100 mg/kg i.p., read-out: % Change S. Chol.",-9%
"CC(O)C1=CCC2C3CC=C4CC(O)CC[C@]4(C)C3CC[C@]12C (stereo partly drawn) [Compound 6, 5,16-Dien-pregnane-3,20-diol]",change in vivo at 50 mg/kg,[1]; [9],-10%
"CC=C1C(OC(C)=O)C[C@H]2[C@@H]3CC=C4CC(OC(C)=O)CC[C@]4(C)[C@H]3CC[C@]12C (stereo partly drawn) [Compound 7, 5,17(20)-Dienpregna-3,16-diol-diacetate]",% Change S. Chol.,[1]; 50 mg/kg i.p.,−33%
"C/C=C1/C(O)CC2C3CC=C4CC(O)CC[C@]4(C)C3CC[C@]12C (stereo partly drawn) [Compound 8, 5,17(20)-Dienpregna-3,16-diol]",change in vivo at 50 mg/kg,[1]; [9],-31%
"C/C=C1/C(=O)CC2C3CCC4=CC(=O)CC[C@]4(C)C3CC[C@]12C (stereo partly drawn) [Compound 9, Gugulsterone, reference compound]",change in vivo at 50 mg/kg,[1]; [9],-44%
"CCOC(=O)C(C)(C)Oc1ccc(Cl)cc1 [Compound 10, Clofibrate, reference compound]",change in vivo at 200 mg/kg,"[1]; Rattus norvegicus, ip, 200 mg/kg i.p., read-out: % Change S. Chol.",-15%
same,Serum Cholesterol,[2]; 0 Days,82.3 ± 3.3 mg %
same,Serum Cholesterol,[2]; 30 Days,53.2 ± 2.0 mg %
same,Serum Cholesterol % Fall,[2]; 30 Days,36%
same,Serum Triglycerides,[2]; 30 Days,47.3 ± 3.2 mg %
same,Serum Triglycerides % Fall compared to control,[2]; 30 Days,28%
"Cc1ccc(C)c(OCCCC(C)(C)C(=O)O)c1 [Gemfibrozil, reference compound]",MDA (Exp.),[3]; 2.5 μmol/ml,53.0 ± 6.0 n mol MDA/mg protein
same,% inhibition of LDL oxidation,[3]; 5.0 μmol/ml,(5) %
same,MDA (Exp.),[3]; 5.0 μmol/ml,48.8 ± 6.7 n mol MDA/mg protein
same,MDA (Exp.),[3]; 10.0 μmol/ml,43.8 ± 4.9 n mol MDA/mg protein
same,% inhibition of LDL oxidation,[3]; 20 μmol/ml,(16) %
same,MDA (Exp.),[3]; 20 μmol/ml,41.4 ± 5.0 n mol MDA/mg protein
same,generation of LDL lipid peroxide (in words),[3],did not inhibit
same,Heart Ca. - ATPase % Protection,[4],30.2%
same,Heart Glycogen % Protection,[4],32.1%
same,Heart Lipid peroxide % Protection,[4],69.8%
same,Heart Phospholipase % Protection,[4],28.2%
same,Serum Alkaline Phosphatase % Protection,[4],41.2%
same,Serum CPK % Protection,[4],33.9%
same,Serum GOT % Protection,[4],24.9%
same,Serum GPT % Protection,[4],33.4%
same,% inhibition of OH radical formation,[5]; 5 μmol/ml,(4) %
same,OH radical formation,[5]; 5 μmol/ml,79.9 ± 6.8 nmol MDA/hr
same,% inhibition of OH radical formation,[5]; 10 μmol/ml,(5) %
same,OH radical formation,[5]; 10 μmol/ml,78.5 ± 8.0 nmol MDA/hr
same,% inhibition of OH radical formation,[5]; 20 μmol/ml,(8) %
same,OH radical formation,[5]; 20 μmol/ml,76.8 ± 7.4 nmol MDA/hr
same,% inhibition of OH radical formation,[5]; 30 μmol/ml,(8) %
same,OH radical formation,[5]; 30 μmol/ml,76.4 ± 3.8 nmol MDA/hr
same,% inhibition of OH radical formation,[5]; 40 μmol/ml,(11) %
same,OH radical formation,[5]; 40 μmol/ml,74.3 ± 6.3 nmol MDA/hr
same,% inhibition of OH radical formation,[5]; 50 μmol/ml,(13) %
same,OH radical formation,[5]; 50 μmol/ml,72.4 ± 8.0 nmol MDA/hr
same,HDL lipid peroxides,[6]; cholesterol + drug 25 mg/kg,134 ± 13 n mol MDA/dl
same,HDL lipid peroxides % reversal as compared with cholesterol fed rats,[6]; cholesterol + drug 25 mg/kg,(−3) %
same,LDL lipid peroxides,[6]; cholesterol + drug 25 mg/kg,568 ± 62 n mol MDA/dl
same,LDL lipid peroxides % reversal as compared with cholesterol fed rats,[6]; cholesterol + drug 25 mg/kg,(−6) %
same,Liver lipid peroxides,[6]; cholesterol + drug 25 mg/kg,253 ± 26 n mol MDA/g
same,Liver lipid peroxides % reversal as compared with cholesterol fed rats,[6]; cholesterol + drug 25 mg/kg,(−8) %
same,Serum lipid peroxides,[6]; cholesterol + drug 25 mg/kg,1161 ± 74 n mol MDA/dl
same,Serum lipid peroxides % reversal as compared with cholesterol fed rats,[6]; cholesterol + drug 25 mg/kg,(−5) %
same,VLDL lipid peroxides,[6]; cholesterol + drug 25 mg/kg,346 ± 10 n mol MDA/dl
same,VLDL lipid peroxides % reversal as compared with cholesterol fed rats,[6]; cholesterol + drug 25 mg/kg,(−9) %
same,"lipid peroxide levels in serum VLDL, LDL and liver (in words)","[6]; cholesterol fed animals, simultaneous treatment",failed to protect
"CCCCNC(=O)NS(=O)(=O)c1ccc(C)cc1 [Tolbutamide, reference compound]",Blood Glucose Level,[7]; 0 hr,292 ± 10 mg/dL
same,% lowering from zero hour value (blood glucose),[7]; 1 hr,(25.3) %
same,% lowering from zero hour value (blood glucose),[7]; 2 hr,(29.1) %
same,% lowering from zero hour value (blood glucose),[7]; 3 hr,(30.8) %
same,% lowering from zero hour value (blood glucose),[7]; 4 hr,(33.2) %
same,% lowering from zero hour value (blood glucose),[7]; 5 hr,(37.3) %
same,% lowering from zero hour value (blood glucose),[7]; 6 hr,(40.4) %
same,% lowering from zero hour value (blood glucose),[7]; 7 hr,(34.2) %
same,% lowering from zero hour value (blood glucose),[7]; 8 hr,(17.1) %
same,Blood Glucose Level,[7]; 24 hr,332 ± 26 mg/dL
same,Maximum Blood Glucose Change,[8]; 100 mg/kg p.o. + glucose,−41.7%
same,Blood Glucose Level,[8]; 0 min,38.15 ± 2.02 mg/dL
same,Blood Glucose Level,[8]; 30 min,76.31 ± 6.29 mg/dL
same,Blood Glucose Level,[8]; 60 min,27.26 ± 3.1 mg/dL
same,Blood Glucose Level,[8]; 90 min,24.64 ± 1.92 mg/dL
same,Blood Glucose Level,[8]; 120 min,23.07 ± 3.11 mg/dL
same,% inhibition compared to control (blood glucose),[8]; 30 min,(35) %
same,% inhibition compared to control (blood glucose),[8]; 60 min,(100) %
same,% inhibition compared to control (blood glucose),[8]; 90 min,(100) %
same,% inhibition compared to control (blood glucose),[8]; 120 min,(100) %
Cc1c(C)c2c(c(C)c1O)CC[C@@](C)(CCC[C@H](C)CCC[C@H](C)CCCC(C)C)O2 [α-Tocopherol],% inhibition of LDL oxidation,[3]; 0.25 μmol/ml,(3) %
same,MDA (Exp.),[3]; 0.25 μmol/ml,44.7 ± 4.5 n mol MDA/mg protein
same,% inhibition of LDL oxidation,[3]; 0.5 μmol/ml,(13) %
same,MDA (Exp.),[3]; 0.5 μmol/ml,41.6 ± 4.0 n mol MDA/mg protein
same,MDA (Exp.),[3]; 1.0 μmol/ml,35.0 ± 3.8 n mol MDA/mg protein
same,% inhibition of LDL oxidation,[3]; 2.0 μmol/ml,(51) %
same,MDA (Exp.),[3]; 2.0 μmol/ml,24.3 ± 2.0 n mol MDA/mg protein
same,generation of LDL lipid peroxide (in words),[3],inhibit the generation of LDL lipid peroxide in concentration dependent manner
same,% inhibition of OH radical formation,[5]; 1 μmol/ml,(23) %
same,OH radical formation,[5]; 1 μmol/ml,60.4 ± 7.0 nmol MDA/hr
same,% inhibition of OH radical formation,[5]; 2 μmol/ml,(42) %
same,OH radical formation,[5]; 2 μmol/ml,45.2 ± 3.3 nmol MDA/hr
same,% inhibition of OH radical formation,[5]; 3 μmol/ml,(59) %
same,OH radical formation,[5]; 3 μmol/ml,32.4 ± 3.5 nmol MDA/hr
same,% inhibition of OH radical formation,[5]; 4 μmol/ml,(65) %
same,OH radical formation,[5]; 4 μmol/ml,27.1 ± 2.8 nmol MDA/hr
same,% inhibition of OH radical formation,[5]; 5 μmol/ml,(73) %
same,OH radical formation,[5]; 5 μmol/ml,20.9 ± 2.0 nmol MDA/hr
